Experimental data as given in patent publication US6884818B1, “Pharmaceutical compositions containing 8-chloro-3 (β-diethylaminoethyl)-4-methyl-7-ethoxycarbonylmethoxy coumarin base and the salts thereof with cholesterol-lowering activity” (Fidia Farmaceutici S.p.A., priority 1999, dated 2005).

Key:
[1] = system: hypercholesterolaemic-diabetic rabbits; test: Test No. 1: tolerability and cholesterol-lowering effect in rabbits on 1% cholesterol diet with alloxan-induced diabetes; format: in vivo, rabbit; conditions: for body weight curve: treated chronically for 4-5 weeks, weighed weekly, versus untreated control group (FIG. 1)
Experimental: A preliminary experiment was performed to assess the ability of cloricromene to reduce plasma levels of cholesterol and triglycerides in rabbits fed on a high-fat diet, treated chronically for 4-5 weeks. As reference product we used scoparone, as it is the only coumarin derivative of vegetable origin with a documented effect on these parameters.
The experimental model induces high levels of cholesterol and triglycerides in the plasma by a 1% cholesterol-enriched diet, simultaneously inducing diabetes by injection of alloxan, a highly toxic product for the β cells of the pancreas. In this way, it is possible to reach very high values of cholesterol and triglycerides in the system rapidly. The body weight of the animals and the plasma levels of the test parameters were assessed weekly throughout the experiment.

[2] = system: hypercholesterolaemic-diabetic rabbits; test: Test No. 2: weekly cholesterol levels in rabbits with alloxan diabetes on 1% cholesterol diet; format: in vivo
Source text: In the same experimental model, in which a diabetic pathology is induced by treating the animals with alloxan, and hypercholesterolaemia is induced by administering a 1% cholesterol diet, we monitored at weekly intervals the cholesterol levels of the rabbits, which had been divided into the following treatment groups: • 1. Control, treated with saline solution • 2. Scoparone • 3. Cloricromene

[3] = system: rabbits on a high-cholesterol diet; test: Test No. 3: cholesterol levels in rabbits on 0.1% cholesterol diet without diabetes; format: in vivo, rabbit; conditions: cholesterol around 250 mg/dl, versus control group and scoparone group (FIG. 3)
Experimental: As further confirmation of this interesting result, we prepared another experimental model. In this case, hypercholesterolaemia was induced in rabbit by administration of a 0.1% cholesterol diet, without simultaneously inducing diabetes. In these experimental conditions, cholesterol levels of around 250 mg/dl were obtained, that is to say, values that are compatible with the pathological situation normally observed in humans affected by hypercholesterol. The rabbits were divided into three treatment groups: controls treated with saline, a second group receiving scoparone and a third receiving cloricromene.

[4] = system: patients with Peripheral Vascular Disease (PVD) at Fontaine stage II; test: Multicentre, double-blind, randomised, placebo-controlled study in patients with Peripheral Vascular Disease (Fontaine stage II); format: in vivo, human
Source text: We conducted a multicentre, double-blind, randomised study, controlled versus placebo, on 159 patients with Peripheral Vascular Disease (PVD) at Fontaine stage II, the classic symptom of which is Intermittent Claudication (IC).
In our study, besides assessing the effect of cloricromene on IC, we also studied the cholesterol-lowering effects of the drug and the incidence of major cardiovascular events (myocardial infarction, stroke, vascular death, progression to Fontaine stages III-IV) after a treatment period of six months.
In analysing the cholesterol-lowering effect, 117 patients were considered who presented cholesterol values at baseline of over 190 mg/dI.
The critical value of 190 mg/dl was selected on the basis of data from the international literature that report this value as the risk threshold in pathologies such as cardiac ischaemia and atherosclerosis in general, in which excessive cholesterol represents a real risk factor. Therefore, the patients who presented cholesterol values equal to or over 190 mg/dl were considered to be at risk from said pathologies.
For the purposes of this analysis, 58 patients were treated for 6 months with 200 mg of cloricromene per day (one capsule of 100 mg twice a day), while the remaining 59 patients were treated with placebo (Table). All the patients also took aspirin at a dose of 160 mg/day throughout the trial.

[5] = 1% cholesterol diet + alloxan, 4-5 weeks, cloricromene group versus scoparone group

Structure (SMILES)	body weight curve ([1]; 1% cholesterol diet + alloxan)	number of animals that completed the treatment ([2]; end of experiment, scoparone group versus cloricromene group)	cholesterol levels [3]	plasma levels of cholesterol [1, 5]	plasma levels of triglycerides [1, 5]	toxic activity on repeated administration over long periods ([1]; repeated administration, in comparison to scoparone)	Cholesterol levels at week 24 ([4]; 58 patients with baseline cholesterol over 190 mg/dl, after 6 months of 200 mg cloricromene per day (100 mg capsule twice a day), plus aspirin 160 mg/day, p = 0.0035 vs week 0)	Cholesterol levels at Week 0 ([4]; 58 patients with baseline cholesterol over 190 mg/dl, baseline before 200 mg cloricromene per day, plus aspirin 160 mg/day)	difference in cholesterol between treatment groups (analysis of covariance) ([4]; cloricromene versus placebo, 6 months, p=0.04, α=0.05)	major cardiovascular events or deaths ([4]; patients, treatment period of six months)	cholesterol levels ([2]; 1% cholesterol diet + alloxan, versus saline control and scoparone, evident from third week of treatment (FIG. 2))
COc1cc2ccc(=O)oc2cc1OC [scoparone]	marked and progressive reduction in body weight	considerably lower	–	–	–	–	–	–	–	–	–
CCOC(=O)COc1ccc2c(C)c(CCN(CC)CC)c(=O)oc2c1Cl [cloricromene, 8-chloro-3(β-diethylaminoethyl)-4-methyl-7-ethoxycarbonylmethoxy coumarin]	superimposable on that of the control group	–	markedly lower	tended to be lower	tended to be lower	absolute lack of toxic activity	229 ± 32	243 ± 31	statistically significant in favour of the group treated with cloricromene	no major cardiovascular events or deaths were observed	markedly lower than those of both the control group and that treated with scoparone
